According to article PMC7822874, “Chemoprotective antimalarials identified through quantitative high-throughput screening of Plasmodium blood and liver stage parasites” (Scientific Reports, 2021):
“And” between values parts separate entries of the source, which are not always exact repeats. Equal entries are not always repeated. Where two headings read alike, the source gives them in different places.

Legend:
[1] = test system: T1, Plasmodium falciparum Dd2-attB-ScDHODH (transgenic line expressing yeast DHODH), asexual blood stages; assay: organism not typed; parameters: replicate k of 3 (each line is one of three independent assays; the three lines of one compound and parasite line follow each other)
T1 construct: Dd2-attB-ScDHODH, the transgenic line that expresses yeast DHODH
Method: (§1) The overexpression of the fumarate-dependent yeast DHODH confers resistance to compounds that inhibit the parasite mETC, or the parasite DHODH enzyme that depends on ubiquinone provided by the parasite mETC. Assays were performed in three independent assays on a subset of compounds, and differences between the Dd2-attB parental line and the ScDHODH transgenic line were analyzed using two-sided Student’s t-tests.

[2] = test system: T2, Plasmodium falciparum Dd2-attB (parental line), asexual blood stages; assay: microbe, parasite or virus in culture; parameters: replicate k of 3 (each line is one of three independent assays; the three lines of one compound and parasite line follow each other); details: n = 1; for Individual replicates / Log AC50 (M): 72 h; for AC50: Plasmodium falciparum, DD2, 72 h
T2 construct: Dd2-attB, the isogenic parental line
Method: as §1

HepG2-A16-CD81EGFP cells = details: average of 2 wells, repeat 2; for HepG2 viability signal, 1 uM, repeat 2: nominal 1 uM (10 mM stock), […] for 15 mM, 1.2 uM for 12 mM, 2 uM for 20 mM stock; for HepG2 viability signal, 3 uM, repeat 2: nominal 3 uM (10 mM stock), 4.5 uM for 15 mM, 3.6 uM for 12 mM, 6 uM for 20 mM stock
[3] = test system: P. berghei-ANKA-GFP-LucCON liver stage parasites in HepG2-A16-CD81EGFP cells; assay: P. berghei liver stage Pb-Luc assay, Method 1 (UCSD, 1536-well); type: cell-based, Plasmodium berghei; details: Plasmodium berghei, 48 h, average of 2 wells, 1536-well plate; for activity at 1 µM: nominal 1 uM (10 mM stock), […] for 15 mM, 1.2 uM for 12 mM, 2 uM for 20 mM stock; for activity at 3 µM: nominal 3 uM (10 mM stock), 4.5 uM for 15 mM, 3.6 uM for 12 mM, 6 uM for 20 mM stock; as to all read-outs here: reference of the scale not given here
[4] = test system: Plasmodium falciparum Dd2 asexual blood stage parasites; assay: microbe, parasite or virus in culture; parameters: species or system Plasmodium falciparum Dd2 in human erythrocytes; single determination (one 11-point concentration-response curve); details: Plasmodium falciparum, DD2, Erythrocyte, 72 h; read-out: AC50
in vitro = details: human, HepG2-A16-CD81EGFP cells, uninfected
[5] = 72 h; n = 1; read-out: Individual replicates / Log AC50 (converted)
[6] = read-out: Individual replicates / Log AC50 (converted)
[7] = repeat 1, read-out: Pb-Luc signal, 1 uM, repeat 1
[8] = repeat 2, read-out: Pb-Luc signal, 1 uM, repeat 2
[9] = repeat 3, read-out: Pb-Luc signal, 1 uM, repeat 3
[10] = repeat 1, read-out: Pb-Luc signal, 3 uM, repeat 1
[11] = repeat 2, read-out: Pb-Luc signal, 3 uM, repeat 2
[12] = repeat 3, read-out: Pb-Luc signal, 3 uM, repeat 3

Cc1cccc(CN2CCCn3nc(C)c(-c4ccccc4OCc4ccccc4)c32)n1 [NCGC00499716-01]
Individual replicates / Log AC50 (M) ([1]; 72 h, n = 1): -4.8486 Log AC50 (M)
AC50 [1, 5]: 12.6 µM
Individual replicates / Log AC50 (M) [2]: -4.8986 Log AC50 (M) and -4.7486 Log AC50 (M)
AC50 [2, 6]: 1.59e-05 M

c1ccc(CN2CCCn3ncc(-c4ccccc4-c4ccccc4)c32)cc1 [NCGC00499205-01]
Individual replicates / Log AC50 (M) [2]: -4.8486 Log AC50 (M)
AC50 [2, 6]: 1.59e-05 M

COc1ccc(NC(=O)CN2C(=O)CCn3nc(-c4cccn4C)cc32)cc1Cl [NCGC00132050-02]
Individual replicates / Log AC50 (M) [2]: -4.9986 Log AC50 (M)
AC50 [2, 6]: 8.94e-06 M

c1ccc(CCn2nc(-c3cnccn3)nc2CCCN2CCCCC2)cc1 [NCGC00390063-01]
AC50 [2, 6]: 7.97e-06 M

Cc1nnc2c3ccccc3nc(N3CCN(c4ccccc4)CC3)n12 [NCGC00107295-02]
Individual replicates / Log AC50 (M) [2]: -4.8986 Log AC50 (M) and -4.9986 Log AC50 (M)

O=C(c1ccccc1F)N1c2nc(-c3ccco3)nn2C2(CCCCC2)[C@@H]2CCCC[C@@H]21 [NCGC00118206-02]
Individual replicates / Log AC50 (M) [2]: -4.7986 Log AC50 (M)
AC50 [2, 6]: 1.59e-05 M

O=C(NCCCN1CCNCC1)c1cccc(-c2cc(O)c3ncccc3c2)c1 [NCGC00244531-01]
AC50 [2, 6]: 1.59e-05 M

Cc1ccc(CN2C(=O)C(O)(CC(=O)c3ccc(C)cc3)c3ccccc32)cc1 (centres unmarked) [NCGC00099997-03]
AC50 [2, 6]: 1.78e-05 M

Cc1nn2c(c1-c1ccnn1C(C)C)N(CCCc1ccccc1)CCC2 [NCGC00499719-01]
AC50 [1, 5]: 17.8 µM

O=C(O)c1ccc(O)c2ncc(N3CCCCC3CCc3ccccn3)cc12 (centres unmarked) [NCGC00241756-01]
AC50 [2, 6]: 2e-05 M

CCOC(=O)c1ccncc1Nc1nn(CCN2CCC(F)(F)CC2)c2ccc(F)cc12 [NCGC00388588-01]
Individual replicates / Log AC50 (M) [2]: -4.7486 Log AC50 (M) and -4.7986 Log AC50 (M)
AC50 [2, 6]: 1.59e-05 M

O=C(NCCCN1CC[S+](=O)([O-])CC1)c1cccc(-c2cc(O)c3ncccc3c2)c1 [NCGC00249378-01]
Individual replicates / Log AC50 (M) ([1]; 72 h; n = 1): -4.6986 Log AC50 (M)
AC50 [1, 5]: 20 µM

CCOC(=O)CCNc1cc(N2CCc3ccccc3CC2)nc(-c2ccccn2)n1 [NCGC00344626-02]
Individual replicates / Log AC50 (M) [2]: -5.0486 Log AC50 (M) and -5.0986 Log AC50 (M)
AC50 [2, 6]: 6.33e-06 M

Cc1nn2c(c1-c1ccccc1-c1ccccc1)N(Cc1ccccc1)CCC2 [NCGC00420451-02]
AC50 [2, 6]: 1.59e-05 M

NC(=O)c1csc(-n2cc(Cc3ccc([S+](N)(=O)[O-])cc3)c(-c3cccc(-c4ccccc4)c3)n2)n1 [NCGC00390757-01]
Individual replicates / Log AC50 (M) [2]: -4.9986 Log AC50 (M) and -4.8486 Log AC50 (M)
AC50 [2, 6]: 2e-05 M

CN1CCN(c2cnc3c(O)ccc(C(=O)O)c3c2)CC1 [NCGC00241033-01]
Individual replicates / Log AC50 (M) [2]: -4.8986 Log AC50 (M) and -4.9486 Log AC50 (M)
AC50 [2, 6]: 1.78e-05 M

CN1CCC(CNCc2nccc3c(=O)[nH]c(COc4ccc(Cc5ccccc5)cc4)nc23)C1 (centres unmarked) [NCGC00489856-02]
Individual replicates / Log AC50 (M) [2]: -4.7486 Log AC50 (M)

O=C(Nc1ccc2c(N3CCCC3)ncnc2c1)c1cccc(Br)c1 [NCGC00425495-01]
HepG2 viability signal, 1 uM, repeat 2 (HepG2-A16-CD81EGFP cells): 101.29%
HepG2 viability signal, 3 uM, repeat 2 (HepG2-A16-CD81EGFP cells): 98.07%
activity at 1 µM [3, 7]: 70.5%
activity at 1 µM [3, 8]: 86.1%
activity at 1 µM [3, 9]: 85.5%
activity at 3 µM [3, 10]: 34.5%
activity at 3 µM [3, 11]: 39.4%
activity at 3 µM [3, 12]: 21.9%
AC50 [4]: 0.668 µM
viability at 48 h, 1 µM (in vitro): 101%
viability at 48 h, 3 µM (in vitro): 97.5%

O=C(NC1CC1)c1cccc(-c2cc(O)c3ncccc3c2)c1 [NCGC00247738-01]
AC50 ([2]; read-out: Individual replicates / Log AC50 (M) (converted)): 1.78e-05 M

Cc1cccc(N2CCN(C(=O)Cn3ncc4c3-c3ccccc3OC4)CC2)c1C [NCGC00112661-02]
AC50 [2, 6]: 1.42e-05 M

CN(C)CCCCCCNC(=O)c1cccc(-c2cc(O)c3ncccc3c2)c1 [NCGC00247743-01]
AC50 [2, 6]: 2e-05 M

c1ccc(Nc2cc3c(cn2)CN(Cc2ccc4[nH]ccc4c2)CCN3)cc1 [NCGC00411105-01]
HepG2 viability signal, 1 uM, repeat 2 (HepG2-A16-CD81EGFP cells): 44.56%
HepG2 viability signal, 3 uM, repeat 2 (HepG2-A16-CD81EGFP cells): 55.41%
activity at 1 µM [3, 7]: 55.9%
activity at 1 µM [3, 8]: 72.5%
activity at 1 µM [3, 9]: 17.8%
activity at 3 µM [3, 10]: 23.8%
activity at 3 µM [3, 11]: 30.2%
activity at 3 µM [3, 12]: 10.7%
AC50 [4]: 1.37 µM
viability at 48 h, 1 µM (in vitro): 40.4%
viability at 48 h, 3 µM (in vitro): 43.5%

O=C(O)c1ccc(O)c2ncc(N3CCN(Cc4ccccc4)CC3)cc12 [NCGC00241045-04]
Individual replicates / Log AC50 (M) [2]: -4.6986 Log AC50 (M) and -4.7986 Log AC50 (M) (2×)

O=C(O)c1ccc(O)c2ncc(N3CCN(Cc4ccccc4)CC3)cc12 [NCGC00241045-03]
AC50 [2, 6]: 1.78e-05 M

Oc1ccccc1-c1cc(-c2cccnc2)c2cncn2c1 [NCGC00412170-01]
HepG2 viability signal, 1 uM, repeat 2 (HepG2-A16-CD81EGFP cells): 95.01%
HepG2 viability signal, 3 uM, repeat 2 (HepG2-A16-CD81EGFP cells): 100.05%
activity at 1 µM [3, 7]: 103%
activity at 1 µM [3, 8]: 117%
activity at 1 µM [3, 9]: 108%
activity at 3 µM [3, 10]: 100%
activity at 3 µM [3, 11]: 122%
activity at 3 µM [3, 12]: 76.4%
AC50 [4]: 1.72 µM
viability at 48 h, 1 µM (in vitro): 98.3%
viability at 48 h, 3 µM (in vitro): 101%

O=C(Nc1ccc2c(N3CCOCC3)ncnc2c1)c1ccc(Br)o1 [NCGC00425547-01]
HepG2 viability signal, 1 uM, repeat 2 (HepG2-A16-CD81EGFP cells): 103.01%
HepG2 viability signal, 3 uM, repeat 2 (HepG2-A16-CD81EGFP cells): 102.12%
activity at 1 µM [3, 7]: 126%
activity at 1 µM [3, 8]: 99.1%
activity at 1 µM [3, 9]: 129%
activity at 3 µM [3, 10]: 123%
activity at 3 µM [3, 11]: 89.4%
activity at 3 µM [3, 12]: 131%
AC50 [4]: 2.66 µM
viability at 48 h, 1 µM (in vitro): 110%
viability at 48 h, 3 µM (in vitro): 106%

COc1ccc(-c2noc(-c3cccn3CC(=O)Nc3ccccc3F)n2)cc1F [NCGC00445496-01]
HepG2 viability signal, 3 uM, repeat 2 (HepG2-A16-CD81EGFP cells): 99.66%
activity at 1 µM [3, 7]: 109%
activity at 1 µM [3, 8]: 140%
activity at 1 µM [3, 9]: 144%
activity at 3 µM [3, 10]: 172%
activity at 3 µM [3, 11]: 189%
activity at 3 µM [3, 12]: 163%
AC50 [4]: 4.22 µM
viability at 48 h, 1 µM (in vitro): 98.5%
viability at 48 h, 3 µM (in vitro): 101%

COc1cccc(C2C(C(=O)Nc3ccc(C)cc3C)=C(C)Nc3c(C(=O)Nc4ccccc4)cnn32)c1 (centres unmarked) [NCGC00126286-01]
HepG2 viability signal, 1 uM, repeat 2 (HepG2-A16-CD81EGFP cells): 98.62%
HepG2 viability signal, 3 uM, repeat 2 (HepG2-A16-CD81EGFP cells): 98.36%
activity at 1 µM [3, 7]: 97.2%
activity at 1 µM [3, 8]: 125%
activity at 1 µM [3, 9]: 153%
activity at 3 µM [3, 10]: 94.7%
activity at 3 µM [3, 11]: 93.4%
activity at 3 µM [3, 12]: 100%
AC50 [4]: 2.11 µM
viability at 48 h, 1 µM (in vitro): 94.8%
viability at 48 h, 3 µM (in vitro): 99.4%
